Assay results published in PMC10652874, “Investigation into the mechanism of action of the antimicrobial peptide epilancin 15X” (Frontiers in Microbiology, 2023).

Assays:
B. subtilis BSF2470 = experiment: Membrane permeability study with propidium iodide (flow cytometry); type: cell-based, Bacillus subtilis; conditions: B. subtilis BSF2470, 20 min exposure, 0.5x, 1x, 4x MIC, n = 3
Protocol: Cultures of S. carnosus TM300 and B. subtilis BSF2470 were grown to OD600 1.0 and diluted to OD600 0.1 in fresh BHI or LB medium, respectively. The culture was then combined with a final concentration of 25 μM PI (ThermoFisher P3566), 1 mM HEPES, and 1 mM glucose. […] Another two tubes were prepared without antibiotic treatment as controls. The culture was analyzed with a BD Biosciences LSR II flow cytometer for S. carnosus and a BD Biosciences LSRFortessa for B. subtilis using excitation at 488 nm with an argon laser and measurement of emission through a band-pass filter at 695/40 nm. A minimum of 30,000 events were detected for each sample. The experiment was repeated three times, and the mean PI uptake value was determined. The results were calibrated such that the mean PI uptake from the 4x MIC nisin-treated cell culture was set as 100% PI uptake.

B. subtilis 168 = experiment: MIC determination in 96-well microtiter plate; type: cell-based, Bacillus subtilis; conditions: LB, 37°C, 10^5 CFU/mL, OD600 after 18 h
Protocol: (§1) MIC determination was performed in a 96-well microtiter plate as described previously ([Wu et al., 2019]). Sensitive bacterial culture was grown in the appropriate medium (BHI for S. carnosus; LB for B. subtilis) at 37°C overnight. The culture was diluted to 10^5 CFU/mL in medium in each well. Epilancin 15X or its analog was dissolved in water and serially diluted to obtain final concentrations of 20, 10, 5, 2.5, 1.25, 0.625, 0.3125, 0.156, 0.078, 0.039, 0.019, and 0.009 μM. OD600 readings were obtained after 18 h using a Synergy H4 Hybrid Multi-Mode Microplate Reader (BioTeK). Cell-free untreated medium, and untreated cell culture were used as negative controls. The MIC of nisin against B. subtilis BSF2470 was determined following the same methods.

[1] = system: B. subtilis BSF2470 (1A980); experiment: MIC determination in 96-well microtiter plate; type: cell-based, Bacillus subtilis; conditions: LB, 37°C, 10^5 CFU/mL, OD600 after 18 h
Protocol: as §1

B. subtilis ATCC 6633 = experiment: MIC determination in 96-well microtiter plate; type: cell-based, Bacillus subtilis; conditions: LB, 37°C, 10^5 CFU/mL, OD600 after 18 h
Protocol: as §1

S. carnosus TM300 = experiment: Bright field (Airyscan) microscopy; type: cell-based, Staphylococcus carnosus; conditions: S. carnosus TM300, 0.5 MIC

## Epilancin 15X
B. subtilis BSF2470
  PI uptake (membrane disruption): increase
B. subtilis 168
  MIC: 4.00 µM
[1]
  MIC: 2.5 µM
B. subtilis ATCC 6633
  MIC: 1.25 µM
S. carnosus TM300
  aggregation phenotype of cells (brightfield): Aggregation and chaining of cells was observed
